The results in this text go back to US7816350B2, “Substituted [1,2,3] triazolo[4,5-D]pyrimidines as cdk inhibitors” (Institute of Experimental Botany ASCR, priority 2002, dated 2010).

In test [1] the target is T1, p34^cdc2/cyclin B (CDC2) (Homo sapiens, UniProt P06493).
T1 construct: made in house; host or cells: Sf9 insect cells (baculovirus co-infection)
Briefly: CDK inhibition assay, p34cdc2/cyclin B kinase, histone H1 phosphorylation. The test is classed as biochemical. The procedure:
(§1) Cyclin-dependent kinases (p34^cdc2, p33^cdk2) and cyclins (cyclin B, E) are produced in Sf9 insect cells coinfected with appropriate baculoviral constructs. The cells are harvested 68-72 hrs post infection in lysis buffer for 30 min on ice and the soluble fraction is recovered by centrifugation at 14.000 g for 10 min. The protein extract is stored at −80° C.
(§2) Lysis buffer: 50 mM Tris pH 7.4, 150 mM NaCl, 5 mM EDTA, 20 mM NaF, 1% Tween, 1 mM DTT, 0.1 mM PMSF, leupeptine, aprotonine.
(§3) To carry out experiments on kinetics under linear conditions, the final point test system for kinase activity measurement is used. The kinase is added to reaction mixture in such a way as to obtain linear activity with respect to the concentration of enzyme and with respect to time.
(§4) The p34^cdc2 and p33^cdk2 kinase inhibition determination involves the use of 1 mg/ml histone H1 (Sigma, type III-S) in the presence of 15 μM [γ-^32P]ATP ([…]) (Amersham) in a final volume of 20 μl. Kinase activity is determined at 30° C. in the kinase buffer.
(§5) Tested compounds are usually dissolved to 100 mM solutions in DMSO, final concentration of DMSO in reaction mixture never exceeds 1%. The controls contain suitable dilutions of DMSO.
(§6) After 10 min, addition 3×SDS sample buffer stops the incubations. Phosphorylated proteins are separated electrophoretically using 12.5% SDS polyacrylamide gel. The measurement of kinase activity is done using digital image analysis.
(§7) The kinase activity is expressed as a percentage of maximum activity, the apparent inhibition constants are determined by graphic analysis (FIG. 1).
(§8) Kinase buffer: 50 mM Hepes pH 7.4, 10 mM MgCl2, 5 mM EGTA, 10 mM 2-glycerolphosphate, 1 mM NaF, 1 mM DTT

The target of test [2] is IκB-α kinase. Briefly: IκB-α kinase inhibitory activity, in vitro kinase assay. The class given is biochemical.
The test system of test [3] is MCF7. Put plainly: In vitro cytotoxic activity, MTT assay, MCF7. The test is classed as cell-based. The conditions noted are these: Homo sapiens, 72 hours. From the text:
One of the parameters used, as the basis for colorimetric assays is the metabolic activity of viable cells. For example, a microtiter assay, which uses the tetrazolium salt MTT, is now widely used to quantitate cell proliferation and cytotoxicity. For instance, this assay is used in drug screening programs and in chemosensitivity testing. Because only metabolically active cells cleave tetrazolium salts, these assays detect viable cells exclusively. In the case of MTT assay, yellow soluble tetrazolium salt is reduced to coloured water-insoluble formazan salt. After it is solubilized, the formazan formed can easily and rapidly be quantified in a conventional ELISA plate reader at 570 nm (maximum absorbance). The quantity of reduced formazan corresponds to number of vital cells in the culture.
Human T-lymphoblastic leukemia cell line CEM; promyelocytic HL-60 and monocytic U937 leukemias; breast carcinoma cell lines MCF-7, BT549, MDA-MB-231; glioblastoma U87MG cells; cervical carcinoma cells HELA; sarcoma cells U2OS and Saos2; hepatocellular carcinoma HepG2; mouse immortalized bone marrow macrophages B2.4 and B10A.4; P388D1 and L1210 leukemia; B16 and B16F10 melanomas were used for routine screening of compounds. The cells were maintained in Nunc/Corning 80 cm^2 plastic tissue culture flasks and cultured in cell culture medium (DMEM with 5 g/l glucose, 2 mM glutamine, 100 U/ml penicillin, 100 μg/ml streptomycin, 10% fetal calf serum and sodium bicarbonate).
The cell suspensions that were prepared and diluted according to the particular cell type and the expected target cell density (2.500-30.000 cells per well based on cell growth characteristics) were added by pipette (80 μl) into 96/well microtiter plates. Inoculates were allowed a pre-incubation period of 24 hours at 37° C. and 5% CO2 for stabilisation. Four-fold dilutions of the intended test concentration were added at time zero in 20 μl aliquots to the microtiter plate wells. Usually, test compound was evaluated at six 4-fold dilutions. In routine testing, the highest well concentration was 266.7 μM, but it can be the matter of change dependent on the agent. All drug concentrations were examined in duplicates. Incubations of cells with the test compounds lasted for 72 hours at 37° C., in 5% CO2 atmosphere and 100% humidity. At the end of incubation period, the cells were assayed by using the MTT. Ten microliters of the MTT stock solution were pipetted into each well and incubated further for 1-4 hours. After this incubation period, formazan was solubilized by addition of 100 μl/well of 10% SDS in water (pH=5.5) followed by further incubation at 37° C. overnight. The optical density (OD) was measured at 540 nm with the Labsystem iEMS Reader MF (UK). The tumour cell survival (TCS) was calculated using the following equation: TCS=(ODdrug exposed well/mean ODcontrol wells)×100%. The IC50 value, the drug concentration lethal to 50% of the tumour cells, was calculated from the obtained dose response curves (FIG. 2).
Background: Formazan colour is commonly taken as a measure of viable cells.

Test [4] deals with K-562. Briefly: In vitro cytotoxic activity, MTT assay, K-562. The class given is cell-based. The conditions noted are these: Homo sapiens, K562, 72 hours.
Test [5] has as its target T2, p33^cdk2 (cyclin E) (Homo sapiens, UniProt P24941).
T2 construct: made in house; host or cells: Sf9 insect cells (baculovirus co-infection)
Briefly: CDK inhibition assay, p33cdk2 kinase, histone H1 phosphorylation. The test is classed as biochemical. The procedure: as §1, §2, §3, §4, §5, §6, §7, §8

The target in test [6] is CDK9 - cyclin T1 (Homo sapiens, UniProt P50750). Briefly: CDK inhibitory activity, CDK9 - cyclin T1. The test is classed as biochemical.

“And” between values parts separate entries of the source, which are not always exact repeats. Equal entries are not always repeated. Bounds are passed on as bounds.

CDK9 - cyclin T1, sequence (P50750 whole entry): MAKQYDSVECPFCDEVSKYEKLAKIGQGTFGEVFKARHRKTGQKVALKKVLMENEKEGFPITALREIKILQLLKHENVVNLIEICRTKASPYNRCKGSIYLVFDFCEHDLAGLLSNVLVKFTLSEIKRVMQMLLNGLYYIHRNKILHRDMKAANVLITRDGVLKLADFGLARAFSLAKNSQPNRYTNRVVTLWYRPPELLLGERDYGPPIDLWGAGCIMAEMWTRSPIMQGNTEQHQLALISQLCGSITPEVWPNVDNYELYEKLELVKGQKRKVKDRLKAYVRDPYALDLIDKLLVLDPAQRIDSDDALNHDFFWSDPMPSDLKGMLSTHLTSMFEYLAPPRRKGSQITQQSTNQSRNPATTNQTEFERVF
CDK9 - cyclin T1, sequence (O60563 whole entry partner): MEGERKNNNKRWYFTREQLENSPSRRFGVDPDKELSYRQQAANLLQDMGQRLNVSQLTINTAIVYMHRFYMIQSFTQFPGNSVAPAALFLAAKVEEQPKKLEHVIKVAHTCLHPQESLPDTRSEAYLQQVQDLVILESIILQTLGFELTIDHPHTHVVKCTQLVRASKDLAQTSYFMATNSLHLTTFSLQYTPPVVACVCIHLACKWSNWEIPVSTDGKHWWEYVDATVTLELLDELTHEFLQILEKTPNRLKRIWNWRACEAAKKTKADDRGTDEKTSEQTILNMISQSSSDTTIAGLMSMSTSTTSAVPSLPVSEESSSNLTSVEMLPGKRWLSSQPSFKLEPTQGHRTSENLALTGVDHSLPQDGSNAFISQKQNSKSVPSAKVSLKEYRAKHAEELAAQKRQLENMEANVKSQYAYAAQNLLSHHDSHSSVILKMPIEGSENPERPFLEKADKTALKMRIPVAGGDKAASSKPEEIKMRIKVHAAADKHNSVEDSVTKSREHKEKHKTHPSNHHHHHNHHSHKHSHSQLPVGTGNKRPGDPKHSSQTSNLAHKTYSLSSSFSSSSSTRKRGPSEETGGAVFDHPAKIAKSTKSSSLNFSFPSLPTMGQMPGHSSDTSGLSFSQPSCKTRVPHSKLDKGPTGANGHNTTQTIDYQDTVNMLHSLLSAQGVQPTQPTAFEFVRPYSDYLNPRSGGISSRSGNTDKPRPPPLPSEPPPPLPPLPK
T1 sequence (P06493 whole entry, species assumed): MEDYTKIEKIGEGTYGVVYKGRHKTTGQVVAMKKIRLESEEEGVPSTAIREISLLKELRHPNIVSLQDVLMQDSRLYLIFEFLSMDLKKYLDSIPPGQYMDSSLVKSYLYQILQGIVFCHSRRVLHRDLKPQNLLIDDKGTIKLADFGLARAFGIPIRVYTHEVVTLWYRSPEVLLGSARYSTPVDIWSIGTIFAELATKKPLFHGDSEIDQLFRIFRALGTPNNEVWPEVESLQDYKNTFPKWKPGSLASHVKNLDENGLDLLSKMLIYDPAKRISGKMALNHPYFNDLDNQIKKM
T1 sequence (P14635 whole entry partner, species assumed): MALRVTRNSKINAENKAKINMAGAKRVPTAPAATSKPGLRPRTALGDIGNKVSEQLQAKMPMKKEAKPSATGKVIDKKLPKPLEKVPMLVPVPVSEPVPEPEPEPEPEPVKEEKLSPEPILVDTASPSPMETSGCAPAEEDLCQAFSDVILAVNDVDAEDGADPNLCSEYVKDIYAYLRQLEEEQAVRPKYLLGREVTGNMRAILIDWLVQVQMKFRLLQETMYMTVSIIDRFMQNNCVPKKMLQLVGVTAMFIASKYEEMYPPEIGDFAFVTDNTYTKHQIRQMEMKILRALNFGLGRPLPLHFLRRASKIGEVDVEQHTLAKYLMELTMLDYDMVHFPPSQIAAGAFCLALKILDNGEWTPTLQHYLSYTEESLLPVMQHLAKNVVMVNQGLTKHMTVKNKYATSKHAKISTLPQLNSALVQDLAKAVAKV

The IC50 is the midpoint of a concentration-inhibition curve. For `CC(C)n1nnc2c(Nc3cccc(Cl)c3)nc(NC3CCCCC3N)nc21` (stereo not drawn), the IC50 is 7 µM in test [1], greater than 100 µM in test [2], 8.9 µM in test [3] and 12.2 µM in test [4].

Take `CC(C)n1nnc2c(Nc3cccc(Cl)c3)nc(NCCN)nc21`: the IC50 in test [1] was greater than 100 µM; in test [2], greater than 100 µM; in test [3], 100 µM; in test [4] it was greater than 100 µM.

In the case of `CC(C)n1nnc2c(Nc3cccc(Cl)c3)nc(NCCO)nc21`, the IC50 in test [2], in test [3] and in test [4] was greater than 100 µM throughout.

As for `CC(C)n1nnc2c(Nc3cccc(Cl)c3)nc(NCCCN)nc21`, the IC50 in test [1] was greater than 100 µM; in test [2], greater than 100 µM; in test [3], 100 µM; in test [4], greater than 100 µM.

Take `CC(C)n1nnc2c(Nc3cccc(Cl)c3)nc(NCCCO)nc21`: the 50% inhibitory concentration (IC50) in test [2], in test [3] and in test [4] was greater than 100 µM each time.

Take `CC(C)n1nnc2c(Nc3cccc(Cl)c3)nc(N(CCO)CCO)nc21`: the IC50 is 35 µM in test [1], greater than 100 µM in test [2], 100 µM in test [3] and greater than 100 µM in test [4].

For the compound `CC(=O)Oc1ccccc1CNc1nc(N[C@@H](CO)C(C)C)nc2c1nnn2C(C)C`, the IC50 in test [1] turned out to be 10 µM; in test [2] it was 85 µM; in test [3], 24.1 µM; in test [4] it was 24 µM.

`CC(=O)c1ccccc1CNc1nc(N[C@@H](CO)C(C)C)nc2c1nnn2C(C)C`: the IC50 was 25 µM in test [1], greater than 100 µM in test [2], 40.8 µM in test [3] and 34.9 µM in test [4].

Take `CC(C)[C@H](CO)Nc1nc(NCc2ccccc2O)c2nnn(C(C)C)c2n1`: the IC50 in test [1] was 7 µM; in test [2] it was greater than 100 µM; in test [3], 24 µM; in test [4] it was 25 µM.

`CC(=O)Oc1cccc(CNc2nc(N[C@@H](CO)C(C)C)nc3c2nnn3C(C)C)c1`: the IC50 in test [1] was 20 µM; in test [2], greater than 100 µM; in test [3] it was 28.2 µM; in test [4] it was 31.7 µM.

Consider `CC(=O)c1cccc(CNc2nc(N[C@@H](CO)C(C)C)nc3c2nnn3C(C)C)c1`, for which the IC50 in test [1] is 40 µM; in test [2] it was greater than 100 µM; in test [3], 47.6 µM; in test [4], 50.6 µM.

Take `CC(C)[C@H](CO)Nc1nc(Nc2ccc(Cl)c(N)c2)c2nnn(C(C)C)c2n1`: the IC50 in test [1] was 24 µM; in test [3], 16.4 µM; in test [4], 18.8 µM.

For the compound `CC(C)[C@H](CO)Nc1nc(Nc2ccc(Cl)c(C(=O)O)c2)c2nnn(C(C)C)c2n1`, the IC50 was found to be 30 µM in test [1], 80 µM in test [2], 21 µM in test [3] and 42 µM in test [4].

`CC(C)[C@H](CO)Nc1nc(Nc2ccc(O)c(C(=O)O)c2)c2nnn(C(C)C)c2n1`: the IC50 in test [1] was 34 µM; in test [2] it was greater than 100 µM; in test [3], 24 µM; in test [4] it was 28 µM.

Consider `CC(C)[C@H](CO)Nc1nc(Nc2ccc(N)c(Cl)c2)c2nnn(C(C)C)c2n1`, for which the IC50 in test [1] was 40 µM; in test [2], greater than 100 µM; in test [3], 22.5 µM; in test [4], 28.9 µM.

Regarding `CC(C)[C@H](CO)Nc1nc(Nc2cccc(Cl)c2)c2nnn(C(C)C)c2n1`, the half-inhibitory concentration (IC50) in test [1] turned out to be 20 µM; in test [2], 80 µM; in test [3], 80 µM; in test [4], 96 µM.

`CC(C)[C@H](CO)Nc1nc(NCc2cccc(O)c2)c2nnn(C(C)C)c2n1`: the IC50 in test [1] came to 8 µM; in test [2] it was 80 µM; in test [3], 18 µM; in test [4], 17.5 µM.

As to `CC(C)[C@H](CO)Nc1nc(Nc2ccc(Br)cc2)c2nnn(C(C)C)c2n1`, the IC50 was 35 µM in test [1], greater than 100 µM in test [2], 64 µM in test [3] and 75 µM in test [4].

As for `CC(C)[C@H](CO)Nc1nc(Nc2ccc(Cl)cc2)c2nnn(C(C)C)c2n1`, the IC50 in test [1] is 35 µM; in test [2] it was 90 µM; in test [3] it was 17.6 µM; in test [4], 19.4 µM.

Take `CC(C)[C@H](CO)Nc1nc(Nc2ccccc2)c2nnn(C(C)C)c2n1`: the values for the IC50 in test [1], in test [3] and in test [4] were 40 µM, 80 µM and 100 µM, respectively.

As for `CC[C@H](CO)Nc1nc(Nc2cccc(Cl)c2)c2nnn(C(C)C)c2n1`, the IC50 in test [1] was 35 µM; in test [2], > 100 µM and 80 µM; in test [3], greater than 100 µM; in test [4], greater than 100 µM.

`CC(C)C(CO)Nc1nc(NCc2ccccc2O)c2nnn(C(C)C)c2n1` (stereo not drawn): the IC50 turned out to be 6.9 µM in test [5] and 2.5 µM in test [6].

Consider `CC(C)n1nnc2c(NCc3ccccc3)nc(NCCCO)nc21`, for which the concentration for half-maximal inhibition (IC50) in test [5] was 54.6 µM; in test [6], 29.2 µM.

Consider `CC(C)n1nnc2c(Nc3cccc(Cl)c3)nc(NC3CCC(N)CC3)nc21` (stereo not drawn), for which the IC50 in test [5] came out at 3.1 µM; in test [6], 1.1 µM.

In the case of `CC(C)n1nnc2c(NCc3ccccc3O)nc(NC3CCC(N)CC3)nc21` (stereo not drawn), the IC50 in test [5] stood at 27.7 µM; in test [6], 14.7 µM.

For `CC(C)n1nnc2c(NCc3cccc(O)c3)nc(NC3CCC(N)CC3)nc21` (stereo not drawn), the IC50 in test [5] was greater than 10 µM; in test [6] it was 1.7 µM.

In the case of `CC(C)n1nnc2c(NCc3ccc(O)cc3)nc(NC3CCC(N)CC3)nc21` (stereo not drawn), the figures for the IC50 in test [5] and in test [6] were greater than 10 µM and 1.4 µM, respectively.

`OC1CCC(Nc2nc(Nc3cccc(Cl)c3)c3nn[nH]c3n2)CC1` (stereo not drawn): the IC50 in test [5] turned out to be 0.1 µM; in test [6] it was 8 µM.

In the case of `CC(C)n1nnc2c(NCc3ccccc3O)nc(NC3CCC(O)CC3)nc21` (stereo not drawn), the IC50 is greater than 10 µM in test [5] and 9.9 µM in test [6].

Consider `CC[C@H](CO)Nc1nc(NCc2ccc(OC)c(O)c2)c2nnn(C(C)C)c2n1`, for which the IC50 in test [5] stood at 6.4 µM; in test [6], 2 µM.

Take `CC[C@H](CO)Nc1nc(NCc2ccccc2)c2nnn(C(C)C)c2n1`: the 50% inhibitory concentration (IC50) in test [5] turned out to be 23.2 µM; in test [6], 11.5 µM.

As for `COc1ccc(CNc2nc(NC3CCCCC3N)nc3c2nnn3C(C)C)cc1O` (stereo not drawn), the IC50 in test [5] was found to be 7 µM; in test [6] it was 1.7 µM.
